Measured values published in ChEMBL document CHEMBL3714750, “Aryl sulfonamides” (2008).

Target: T1, C-C chemokine receptor type 9 (Homo sapiens, UniProt P51686)
T1 sequence (P51686 whole entry): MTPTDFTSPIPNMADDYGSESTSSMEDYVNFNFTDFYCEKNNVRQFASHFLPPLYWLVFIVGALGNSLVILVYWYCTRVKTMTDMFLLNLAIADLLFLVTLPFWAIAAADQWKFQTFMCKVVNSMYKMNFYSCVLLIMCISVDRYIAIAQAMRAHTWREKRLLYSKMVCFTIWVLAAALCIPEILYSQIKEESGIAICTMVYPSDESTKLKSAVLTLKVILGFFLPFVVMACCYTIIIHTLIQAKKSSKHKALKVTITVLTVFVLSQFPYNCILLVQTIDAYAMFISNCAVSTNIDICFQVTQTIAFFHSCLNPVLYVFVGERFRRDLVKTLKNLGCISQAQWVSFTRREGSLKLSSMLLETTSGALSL
Assay: Antagonist activity against CCR9 in human MOLT4 cells assessed as inhibition of human recombinant TECK-induced calcium response pre-treated before TECK stimulation by Flou-4-AM dye based FLIPR assay
Assay type: functional, cell-based, MOLT-4

Structure (SMILES) | IC50
C[C@@H]1CN(c2ccc(S(=O)(=O)Nc3ccc(Cl)cc3C(=O)c3cc[n+]([O-])cc3)cc2)C[C@H](C)O1 | < 1 µM
CN(C)C(=O)CCc1ccc(S(=O)(=O)Nc2ccc(Cl)cc2C(=O)c2ccncc2)cc1 | > 1 µM
CC(C)(C)c1ccc(S(=O)(=O)Nc2ccc(S(=O)(=O)N3CCCC3)cc2C(=O)c2cc[n+]([O-])cc2)cc1 | > 1 µM
C[C@@H]1CN(c2ccc(S(=O)(=O)Nc3ccc(Cl)cc3C(=O)c3cc[n+]([O-])cc3)cc2F)C[C@H](C)O1 | < 1 µM
Cc1ccc(C(=O)c2cc(Cl)ccc2NS(=O)(=O)c2ccc(-c3ocnc3C)cc2)cn1 | < 1 µM
O=C(c1ccncc1)c1cc(Cl)ccc1NS(=O)(=O)c1ccc(-c2csnn2)cc1 | < 1 µM
CC(C)(C)c1ccc(S(=O)(=O)Nc2ccc(Cl)cc2C(=O)c2ccc[n+]([O-])c2)cc1 | < 1 µM
O=C(c1ccncc1)c1cc(Cl)ccc1NS(=O)(=O)c1ccc(-c2ccsc2)cc1 | < 1 µM
COc1ccc(S(=O)(=O)Nc2ccc(Cl)cc2C(=O)c2nccn2C)cc1 | > 1 µM
CC(=O)c1ccc(S(=O)(=O)Nc2ccc(Cl)cc2C(=O)c2ccc(C)[n+]([O-])c2)cc1 | < 1 µM
Cc1cccc(C(=O)c2cc(Cl)ccc2NS(=O)(=O)c2ccc(C(C)(C)C)cc2)n1 | < 1 µM
O=C(c1ccncc1)c1cc(Cl)ccc1NS(=O)(=O)c1ccc(-c2ccc[nH]2)cc1 | > 1 µM
CC(C)(C)c1ccc(S(=O)(=O)Nc2ccc(F)c(F)c2C(=O)c2cccnc2)cc1 | < 1 µM
CC1(c2ccc(S(=O)(=O)Nc3ccc(Cl)cc3C(=O)c3ccncc3)cc2)CCOCC1 | < 1 µM
Cc1ncccc1C(=O)c1cc(Cl)ccc1NS(=O)(=O)c1ccc(S(C)(=O)=O)cc1 | < 1 µM
Cc1ccc(C(=O)c2cc(Cl)ccc2NS(=O)(=O)c2ccc(C3(C)CCOCC3)cc2)c[n+]1[O-] | < 1 µM
O=C(c1ccncn1)c1cc(Cl)ccc1NS(=O)(=O)c1ccc(-c2cnco2)cc1 | > 1 µM
Cc1c(C(=O)c2cc(Cl)ccc2NS(=O)(=O)c2ccc(C(C)(C)C)cc2)ccc[n+]1[O-] | < 1 µM
CC(C)(c1ccc(S(=O)(=O)Nc2ccc(Cl)cc2C(=O)c2cc[n+]([O-])cc2)cc1)c1ncco1 | < 1 µM
COC(=O)CCc1ccc(S(=O)(=O)Nc2ccc(Cl)cc2C(=O)c2ccncc2)cc1 | < 1 µM
Cc1cc(C(=O)c2cc(Cl)ccc2NS(=O)(=O)c2ccc(C(C)(C)C)cc2)ccn1 | < 1 µM
CN(C)C(=O)C(C)(C)c1ccc(S(=O)(=O)Nc2ccc(Cl)cc2C(=O)c2ccncc2)cc1 | > 1 µM

Structure (SMILES) | IC50
CC(C)(C)OC(=O)n1cccc1-c1ccc(S(=O)(=O)Nc2ccc(Cl)cc2C(=O)c2ccncc2)cc1 | > 1 µM
Cc1cccc(C(=O)c2cc(Cl)ccc2NS(=O)(=O)c2ccc(-c3cnc(C)o3)cc2)n1 | > 1 µM
Cc1nnc(-c2ccc(S(=O)(=O)Nc3ccc(Cl)cc3C(=O)c3cccnc3)cc2)o1 | > 1 µM
CC1(c2ccc(S(=O)(=O)Nc3ccc(Cl)cc3C(=O)c3ccncc3)cc2)OCCO1 | < 1 µM
CC(C)(c1ccc(S(=O)(=O)Nc2ccc(Cl)cc2C(=O)c2ccncc2)cc1)c1cocn1 | < 1 µM
COc1ccc(S(=O)(=O)Nc2ccc(Cl)cc2C(=O)N2CCCCC2)cc1 | > 1 µM
O=C(c1ccncc1)c1cc(Cl)ccc1NS(=O)(=O)c1ccc(Cl)cc1 | > 1 µM
Cc1ccncc1C(=O)c1cc(Cl)ccc1NS(=O)(=O)c1ccc(-c2cnco2)cc1 | < 1 µM
Cc1ccc(C(=O)c2cc(Cl)ccc2NS(=O)(=O)c2ccc(S(C)(=O)=O)cc2)c[n+]1[O-] | < 1 µM
CC(C)c1ccc(S(=O)(=O)Nc2ccc(Br)cc2C(=O)c2ccncc2)cc1 | < 1 µM
Cc1ncccc1C(=O)c1cc(Cl)ccc1NS(=O)(=O)c1ccc(C(C)(C)C)cc1 | < 1 µM
CCC(C)(C)c1ccc(S(=O)(=O)Nc2ccc(Cl)cc2C(=O)c2ccncc2)cc1 | < 1 µM
O=C(c1ccncc1)c1cc(Cl)ccc1NS(=O)(=O)c1ccc(N2CCNCC2)cc1 | > 1 µM
CC(C)(C)c1ccc(S(=O)(=O)Nc2ccc(Cl)cc2C(=O)c2ccnc(S(C)(=O)=O)c2)cc1 | < 1 µM
CC(C)(c1ccc(S(=O)(=O)Nc2ccc(Cl)cc2C(=O)c2cc[n+]([O-])cc2)cc1)c1cnco1 | < 1 µM
Cc1cc(C(=O)c2cc(Cl)ccc2NS(=O)(=O)c2ccc(OC(F)(F)F)cc2)ccn1 | < 1 µM
O=C(c1ccncc1)c1cc(Cl)ccc1NS(=O)(=O)c1ccc(-c2cc3ccccc3[nH]2)cc1 | > 1 µM
CC(C)Oc1ccc(S(=O)(=O)Nc2ccc(Cl)cc2C(=O)c2cccnc2)cc1 | < 1 µM
CC(C)(c1ccc(S(=O)(=O)Nc2ccc(Cl)cc2C(=O)c2ccncc2)cc1)c1cnco1 | < 1 µM
CS(=O)(=O)c1ccc(S(=O)(=O)Nc2ccc(Cl)cc2C(=O)c2ccc(Cl)[n+]([O-])c2)cc1 | < 1 µM
COC(=O)CCc1ccc(S(=O)(=O)Nc2ccc(Cl)cc2C(=O)c2cccnc2)cc1 | < 1 µM
C[C@@H]1CN(c2ccc(S(=O)(=O)Nc3ccc(Cl)cc3C(=O)c3ccncc3)cc2)C[C@H](C)O1 | < 1 µM

Structure (SMILES) | IC50
Cc1cccc(C(=O)c2cc(Cl)ccc2NS(=O)(=O)c2ccc(C3(C)CCOCC3)cc2)n1 | < 1 µM
Cc1ccc(C(=O)c2cc(Cl)ccc2NS(=O)(=O)c2ccc(C(C)(C)C)cc2)c[n+]1[O-] | < 1 µM
O=C(c1ccncc1)c1cc(Cl)ccc1NS(=O)(=O)c1ccc(-c2ccco2)cc1 | < 1 µM
CC(=O)c1ccc(S(=O)(=O)Nc2ccc(Cl)cc2C(=O)c2ccnc(C)c2)cc1 | > 1 µM
O=C(c1ccncc1)c1cc(Cl)ccc1NS(=O)(=O)c1ccc(N2CCSCC2)cc1 | < 1 µM
CC1(c2ccc(S(=O)(=O)Nc3ccc(Cl)cc3C(=O)c3ccccn3)cc2)CCOCC1 | < 1 µM
CC(C)(CO)c1ccc(S(=O)(=O)Nc2ccc(Cl)cc2C(=O)c2ccncc2)cc1 | < 1 µM
Cc1noc(C)c1-c1ccc(S(=O)(=O)Nc2ccc(Cl)cc2C(=O)c2ccncc2)cc1 | < 1 µM
Cc1ccc(C(=O)c2cc(Cl)ccc2NS(=O)(=O)c2ccc(OC(C)C)cc2)cn1 | < 1 µM
COc1ccc(S(=O)(=O)Nc2ccc(Cl)cc2C(=O)NCc2ccccc2)cc1 | < 1 µM
CC(C)(C)c1ccc(S(=O)(=O)Nc2ccc(Cl)cc2C(=O)c2ccc(N3CCOCC3)nc2)cc1 | > 1 µM
CC1(c2ccc(S(=O)(=O)Nc3ccc(Cl)cc3C(=O)c3cccnc3)cc2)CCOCC1 | < 1 µM
O=C(c1ccncc1)c1cc(Cl)ccc1NS(=O)(=O)c1ccc(N2CCOCC2)c(F)c1 | < 1 µM
Cc1cccc(C(=O)c2cc(Cl)ccc2NS(=O)(=O)c2ccc(C(C)(C)c3ncco3)cc2)n1 | < 1 µM
CC(C)(C)c1ccc(S(=O)(=O)Nc2ccc(Cl)cc2C(=O)c2ccccn2)cc1 | < 1 µM
COc1ccc(S(=O)(=O)Nc2ccc(Cl)cc2C(=O)N2CCNCC2)cc1 | > 1 µM
CC(C)Sc1ccc(S(=O)(=O)Nc2ccc(Cl)cc2C(=O)c2ccncc2)cc1 | < 1 µM
Cc1ccc(C(=O)c2cc(Cl)ccc2NS(=O)(=O)c2ccc(C3(C)CCOCC3)cc2)cn1 | < 1 µM
CC(C)(c1ccc(S(=O)(=O)Nc2ccc(Cl)cc2C(=O)c2ccc[n+]([O-])c2)cc1)c1ncco1 | < 1 µM
O=C(c1ccncc1)c1cc(Cl)ccc1NS(=O)(=O)c1ccc(-c2cccnc2F)cc1 | > 1 µM
CC(C)(C)c1ccc(S(=O)(=O)Nc2cc(F)c(F)cc2C(=O)c2ccncc2)cc1 | < 1 µM
Cc1ccc(C(=O)c2cc(Cl)ccc2NS(=O)(=O)c2ccc(C(C)(C)c3ncco3)cc2)cn1 | < 1 µM

Structure (SMILES) | IC50
CCOC(=O)CNC(=O)c1cc(Cl)ccc1NS(=O)(=O)c1ccc(OC)cc1 | > 1 µM
COc1ccc(S(=O)(=O)Nc2ccc(Cl)cc2C(=O)N2CCCC(Cc3ccccc3)C2)cc1 (stereo unspecified) | > 1 µM
Cc1nnc(-c2ccc(S(=O)(=O)Nc3ccc(Cl)cc3C(=O)c3ccccn3)cc2)o1 | > 1 µM
CC(C)(C)c1ccc(S(=O)(=O)Nc2ccc(Cl)cc2C(=O)c2ccc(Cl)nc2)cc1 | < 1 µM
O=C(c1cccnc1)c1cc(Cl)ccc1NS(=O)(=O)c1ccc(OC(F)(F)F)cc1 | < 1 µM
CC(C)(c1ccc(S(=O)(=O)Nc2ccc(Cl)cc2C(=O)c2cccnc2)cc1)c1ncco1 | < 1 µM
Cn1nnnc1-c1ccc(S(=O)(=O)Nc2ccc(Cl)cc2C(=O)c2ccncc2)cc1 | > 1 µM
O=C(c1ccncc1)c1cc(Cl)ccc1NS(=O)(=O)c1ccc(N2CCC2)cc1 | < 1 µM
Cc1ncccc1C(=O)c1cc(Cl)ccc1NS(=O)(=O)c1ccc(OC(C)C)cc1 | < 1 µM
CC(C)(C)c1ccc(S(=O)(=O)Nc2ccc(Br)cc2C(=O)c2ccncc2)cc1 | < 1 µM
CC(=O)c1ccc(S(=O)(=O)Nc2ccc(Cl)cc2C(=O)c2ccc(C)nc2)cc1 | > 1 µM
Cc1ccc(C(=O)c2cc(Cl)ccc2NS(=O)(=O)c2ccc(C(C)(C)c3cocn3)cc2)cn1 | < 1 µM
O=C(c1ccncc1)c1cc(Cl)ccc1NS(=O)(=O)c1ccc(N2CCN(CC(F)(F)F)CC2)cc1 | > 1 µM
COC(=O)CCc1ccc(S(=O)(=O)Nc2ccc(Cl)cc2C(=O)c2ccc(C)[n+]([O-])c2)cc1 | < 1 µM
COc1ccc(S(=O)(=O)Nc2ccc(Cl)cc2C(=O)NCCc2ccccc2)cc1 | < 1 µM
CS(=O)(=O)c1ccc(S(=O)(=O)Nc2ccc(Cl)cc2C(=O)c2ccncc2)cc1 | > 1 µM
O=C(c1cc[n+]([O-])cc1)c1cc(Cl)ccc1NS(=O)(=O)c1ccc(-c2ccoc2)cc1 | < 1 µM
O=C(c1ccncc1)c1cc(Cl)ccc1NS(=O)(=O)c1ccc(-c2nccs2)cc1 | > 1 µM
CC(=O)c1ccc(S(=O)(=O)Nc2ccc(Cl)cc2C(=O)c2ccncc2)cc1 | > 1 µM
Cc1ccc(C(=O)c2cc(Cl)ccc2NS(=O)(=O)c2ccc(C(C)(C)C)cc2)cn1 | < 1 µM
